Reference: patent US8071654B2, “Inhibitors of thromboxane formation and action” (priority 2000, dated 2011)

Key:
[1] = molecular target: T1, 12-LOX (Homo sapiens, UniProt P18054); assay: 12-HETE formed in collagen-treated washed human platelets (12-LOX), HPLC; format: cell-based; details: for 12-LOX enzyme activity (% of control values, mean ± SD): n = 3
T1 construct: endogenous in cells; host or cells: washed human platelets
T1 sequence (P18054 1-663): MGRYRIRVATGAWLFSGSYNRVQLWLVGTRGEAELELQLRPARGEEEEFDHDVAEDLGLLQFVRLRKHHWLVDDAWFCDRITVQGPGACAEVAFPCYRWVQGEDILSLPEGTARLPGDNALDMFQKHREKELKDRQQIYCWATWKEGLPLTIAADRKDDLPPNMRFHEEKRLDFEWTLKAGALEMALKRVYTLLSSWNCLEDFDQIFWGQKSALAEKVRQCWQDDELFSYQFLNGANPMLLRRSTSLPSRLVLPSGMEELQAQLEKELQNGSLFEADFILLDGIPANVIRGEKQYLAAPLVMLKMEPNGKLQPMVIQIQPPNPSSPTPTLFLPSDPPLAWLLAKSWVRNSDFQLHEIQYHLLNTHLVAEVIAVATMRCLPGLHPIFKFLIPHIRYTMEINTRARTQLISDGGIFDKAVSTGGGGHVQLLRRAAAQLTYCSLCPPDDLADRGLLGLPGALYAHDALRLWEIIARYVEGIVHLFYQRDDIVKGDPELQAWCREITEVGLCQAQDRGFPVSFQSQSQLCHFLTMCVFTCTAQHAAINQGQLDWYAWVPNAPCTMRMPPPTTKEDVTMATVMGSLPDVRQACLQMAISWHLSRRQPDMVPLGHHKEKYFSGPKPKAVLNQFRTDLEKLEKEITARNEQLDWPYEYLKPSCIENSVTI
Protocol: 0.5 ml of platelet suspension was added to siliconized glass tubes (four at a time) and heated with magnetic stirring to 37° for 1 min in a platelet aggregometer (PAP-4C). Either vehicle alone (ethanol, 1 μl) or hepoxilin analog was then added, followed two min later by agonist (collagen: 2 μg; PGH2: 100 ng/0.5 ml; U46619: 10 ng/0.5 ml or I-BOP: 2 ng/0.5 ml). The response was recorded for the next 5 min. In experiments where analysis of TxB2 and HHT were to be made by HPLC, the platelet suspension at the end of the experiment was diluted with ethyl acetate, 100 ng of prostaglandin B1 was added as internal standard, and the mixture was acidified to pH 3 with 0.1 N HCl. After centrifugation, the organic layer was separated, washed twice with water to neutrality, and evaporated to dryness. Half of the sample was taken and was resuspended in 1 ml ethyl acetate containing 20 μg ADAM reagent, and was left in the dark for 2 h (38). The solvent was then evaporated and the residue was acetylated with a solution of pyridine/acetic anhydride (3/1, v/v) during 16 h at 23°. The reagents were evaporated to dryness and the residue was resuspended in acetonitrile/water for HPLC analysis. In experiments where the conversion of tritiated PGH2 was to be monitored, the procedure described above was repeated with tritiated PGH2 instead of unlabeled PGH2. After extraction of the sample as described above, the radiolabeled compounds were analyzed by TLC. Dose response curves for varying amounts of test compounds were generated and the data expressed as % inhibition of collagen-induced platelet aggregation. Each point was investigated 5 times and statistical analysis of the data was carried out using Macintosh Statview statistical software.
Measurement of eicosanoids formed by platelets during treatment with collagen or the TP receptor agonists in the presence or absence of PBT-3 was carried out by HPLC after appropriate derivatization with a fluorescent tag (anthracyl diazomethane—ADAM) which forms a fluorescent ester (44). The method was adapted to measure the following compounds: TxB2, HHT, 12-HETE and M. The platelet suspension at the end of the experiment was mixed with ethyl acetate, 100 ng of prostaglandin B1 was added as internal standard and the mixture was acidified to pH 3 with 0.1 N HCl. After centrifugation, the organic layer was separated, washed twice with water to neutrality, and evaporated to dryness. The residue was resuspended in ethyl acetate and half of the sample was taken. It was diluted to 0.2 ml with ethyl acetate containing 20 μg ADAM reagent, and was left in the dark for 2 h. The solvent was then evaporated and the residue was acetylated with a solution of pyridine/acetic anhydride (3/1, v/v) for 16 h at 23°. The reagents were evaporated to dryness and the residue was resuspended in acetonitrile/water for HPLC analysis. Dose response curves for varying amounts of test compounds were generated and the data were expressed as % inhibition of agonist-induced platelet aggregation. Each point was investigated 3 times and statistical analysis of the data was carried out using Macintosh Statview statistical software.
Analysis of the anthryl (ADAM)-acetate derivative of TxB2, HHT and 12 HETE in the extracted platelet samples was carried out on a Hewlett Packard (1100 series) HPLC to which was attached a Shimadzu fluorescent detector (RF-10AXL). The detector was operated with excitation at 364 nm, emission at 411 nm. […]

[2] = intra ocular pressure in rats, eye drops, TonoPen; format: in vivo, Brown Norway rats; details: 0.005%, one drop daily to left eye, after 10 days' treatment, vs untreated right eye
Protocol: Brown Norway rats (300 g) were purchased from Charles River (St. Constant, Que), and housed (two/cage) in an animal facility with free access to food and water. A light cycle of 12 h on and 12 h off was maintained. Animals were allowed to adjust for one week prior to treatment during which period they were handled daily to get them familiarized with the procedures.
Prior to treatment with test drugs, the rats' intra ocular pressures (IOP) were measured to establish baseline readings. One drop of Didocaine (0.5%, Dioptic Labs, Markham, Ont) was administered to each eye, and the pressure in each eye was measured with a TonoPen (Mentor XL, Innova Medical Ophthalmics, Toronto). The treatment protocol consisted of daily administration of one drop of one of the following substances to the left eye, the right eye being left untreated to act as a control. […] Following this, the animals were left without treatment for 2 weeks (wash-out), and then treatment was started again, the same animals receiving the same drugs. Results are calculated from at least 30 readings/test animal and presented as the mean±SEM (left eye vs right eye), with the exclusion of readings >50 and <10 which were considered spurious and artifactual readings.

12-LOX enzyme activity (% of control values, mean ± SD) ([1]; PBT-3 0.05 μM): 79.4 ± 7.6 % of control
12-LOX enzyme activity (% of control values, mean ± SD) ([1]; PBT-3 0.30 μM): 85.2 ± 7.4^NS % of control
12-LOX enzyme activity (% of control values, mean ± SD) ([1]; PBT-3 0.60 μM): 73.0 ± 4.9 % of control
12-LOX enzyme activity (% of control values, mean ± SD) ([1]; PBT-3 3.00 μM): 102.5 ± 5.7^NS % of control
Structure (SMILES): CCCCC/C=C\CC1CC1[C@@H](O)/C=C\C/C=C\CCCC(=O)OC (stereo partly drawn) [PBT-3, 10(S)-hydroxy-11,12-cyclopropyl-eicosa-5Z,8Z,14Z-trienoic acid methyl ester]
inhibition of 12-LOX, in words ([1]; relatively large amounts of PBT-3, about 3-4 log doses greater than required to inhibit the TP receptor): Neither COX-1, COX-2,12-LOX nor Plase A2 was inhibited
effect on intra ocular pressure (IOP) [2]: significant reduction in IOP, comparable to that produced by latanoprost
